# From patent publication US20220277805A1, “GENETIC MUTATIONAL ANALYSIS” (BioSkryb Genomics, Inc., priority 2019, published 2022)
# “Also recorded” adds a separate entry of the source.
# Legend:
# [1] = tested on: mice; conditions: limited sequencing of target genes; cited from earlier work
# [2] = tested on: cord blood CD34+ cells; assay: direct measurement of environmental mutagenicity (DMEM), single-cell PTA sequencing; type: cell-based, human; conditions: for enrichment of cytosine variants in DNase I hypersensitivity sites: compared to DH sites of CD34+ cells, Roadmap Epigenomics Project, FIG. 12D, 12E
# Text: PTA was used to conduct a novel mutagenicity assay that provides a framework for performing high-resolution, genome wide human toxicogenomics studies. Previous studies such as the Ames test, relies on bacterial genetics to make measurements that are assumed to be representative of human cells while only providing limited information on the mutation number and patterns induced in each exposed cell. To overcome these limitations, a human mutagenesis system “direct measurement of environmental mutagenicity (DMEM)” was developed, wherein single human cells was exposed to an environmental compound, isolated as single cells, and subjected to single-cell sequencing to identify the new mutations induced in each cell.
# Umbilical cord blood cells that express the stem/progenitor marker CD34 were exposed to increasing concentrations of the direct mutagen N-ethyl-N-nitrosourea (ENU).
# ENU (CAS 759-73-9) and D-mannitol (CAS 69-65-8) were put into solution at their maximal solubility. Fresh anticoagulant-treated umbilical cord blood (CB) was obtained from St. Louis Cord Blood Bank. CB was diluted 1:2 with PBS and mononuclear cells (MNCs) were isolated by density gradient centrifugation on Ficoll-Paque Plus according to manufacturer's instructions. CB MNCs expressing CD34 were then immunomagnetically selected using the human CD34 microbead kit and magnetic cell sorting (MACS) system as per the manufacturer. Cell count and viability were assessed using the Luna FL cell counter. CB CD34+ cells were seeded at a density of 2.5×10^4 cells/mL in StemSpan SFEM supplemented with 1× CD34+ Expansion supplement, 100 units/mL of penicillin, and 100 ug/mL of streptomycin where they expanded for 96 hours before proceeding to mutagen exposure.
# Expanded cord blood CD34+ cells were cultured in StemSpan SFEM supplemented with 1× CD34+ Expansion Supplement, 100 units/mL of penicillin, and 100 ug/mL of streptomycin. The cells were exposed to ENU at concentrations of 8.54, 85.4, and 854 uM, D-mannitol at 1152.8, and 11528 uM, or 0.9% sodium chloride (vehicle control) for 40 hours. Single-cell suspensions from drug-treated cells and vehicle control samples were harvested and stained for viability as described above. Single cell sorts were carried out as described above. PTA was performed and libraries were prepared using a simplified and improved protocol as per the general methods of the methods described herein, and Example 2.
# Data acquired from cells in the DMEM experiments were trimmed using Trimmomatic, aligned to GRCh38 using BWA, and further processed using GATK 4.0.1 best practices without deviation from the recommended parameters. Genotyping was performed using HaplotypeCaller where joint genotypes were again filtered using standard parameters. […] The trinucleotide context of each SNV was determined by extracting the surrounding bases from the reference genome using bedtools. Mutation counts and context were visualized using ggplot2 and heatmap2 in R.
# To determine whether mutations were enriched in DNase I hypersensitivity sites (DHS) in CD34+ cells, the proportion of SNVs in each sample that overlap with DHS sites from 10 CD34+ primary cell datasets produced by the Roadmap Epigenomics Project were calculated. DHS sites were extended by 2 nucleosomes, or 340 bases in either direction. Each DHS dataset was paired with a single cell sample where we determined the proportion of the human genome with at least 10× coverage in that cell which overlapped with a DHS, which was compared to the proportion of SNVs that were found within the covered DHS sites.
# [3] = tested on: clone harboring an activating KRAS mutation; assay: leukemia cells in culture exposed to standard ALL chemotherapy drugs, bulk sequencing of clones; type: cell-based; conditions: FIG. 7
# Text: Given such a massive population genetic diversity, it has been hypothesized that there are clones that are more resistant to treatment within a given patient. To test that hypothesis, the sample is placed in culture and the leukemia cells are exposed to increasing concentrations of standard ALL chemotherapy drugs. […] This approach also employed bulk sequencing of the treated samples. The use of single-cell DNA sequencing in some instances allows a determination of the diversity and clonotypes of the expanding populations.
compound,measurement,setting,value
"CCN(N=O)C(N)=O [ENU, N-ethyl-N-nitrosourea]",preferred base changes,[1],"T to A (A to T), T to C (A to G), and C to T (G to A)"
same,most common mutations (base changes),[2]; FIG. 12B,"T to A (A to T), T to C (A to G), and C to T (G to A)"
same,enrichment in variant locations at DH sites,"[2]; all ENU induced mutations, FIG. 12E",No significant enrichment in variant locations at DH sites
same,enrichment of cytosine variants in DNase I hypersensitivity sites,[2],no enrichment of cytosine variants in DNase I hypersensitivity sites was observed; also recorded: no enrichment of variants restricted to cytosines was observed in DH sites
same,enrichment of cytosine variants in DNase I hypersensitivity sites,[2]; listed as N-ethyl-N-nitrosourea,No significant enrichment of cytosine variants was observed
same,mutation number of each cell,"[2]; increasing ENU concentrations 8.54, 85.4, 854 uM, 40 hours, FIG. 12A",dose-dependent increase in mutation number of each cell
same,enrichment of variants in genomic locations with specific annotations,"[2]; relative to proportion of the genome each annotation comprises, FIG. 12F",No specific enrichment
asparaginase,response of the clone harboring an activating KRAS mutation,[3]; lowest dose,continued to expand
COc1cccc2c1C(=O)c1c(O)c3c(c(O)c1C2=O)C[C@@](O)(C(C)=O)C[C@@H]3O[C@H]1C[C@H](N)[C@H](O)[C@H](C)O1 [daunorubicin],response of the clone harboring an activating KRAS mutation,[3]; in culture with drug,more sensitive; also recorded: killed
C[C@]12C=CC(=O)C=C1CC[C@@H]1[C@@H]2[C@@H](O)C[C@@]2(C)[C@H]1CC[C@]2(O)C(=O)CO [prednisolone],response of the clone harboring an activating KRAS mutation,[3]; in culture with drug,more sensitive; also recorded: killed
